“Also recorded” adds a separate entry of the source. Read-outs that look alike come from different tables or passages of the source.
Experiments:
NQO1 knockout mice [1] = conditions: day 18
Procedure: The day, on which the NQO1 knockout mice were hair-removed according to Example 1, was set as day 0, and the animals were divided into the following experimental groups and used for experiments: normal group (Control, 4 animals) in which only PBS is intraperitoneally injected on day 9; cyclophosphamide group (CYP, 6 animals) in which cyclophosphamide (150 mg/kg) is intraperitoneally injected on day 9; combination-treated group (CYP+Dunnione, 6 animals) in which dunnione is orally administered on a daily basis starting from 3 days prior to treatment with cyclophosphamide; and dunnione alone-treated group (Dunnione, 4 animals) in which only dunnione (20 mg/kg) is administered (FIG. 1).
The day, on which the NQO1 knockout mice were hair-removed according to Example 1, was set as day 0, and the mice in each of the experimental groups described in Example 3 were sacrificed on day 18. Subsequently, the mouse dorsal skin was dissected parallel or perpendicular to the vertebral line, and removed. The removed skin was fixed with a Bouin's solution for 12 hours, subjected to dehydration, and embedded in paraffin. Then, the resulting product was prepared into 5-μm sections. The prepared sections were subjected to hematoxylin and eosin (H&E) staining, and histological changes in the skin in each experimental group were observed.

NF-κB p65 = assay: Acetylation of NF-κB p65 in skin tissue (western blot), cyclophosphamide alopecia model; assay type: in vivo, mice; conditions: cyclophosphamide plus dunnione; day 18
Procedure: In the cyclophosphamide-induced alopecia mouse model of Example 2, expression level of Sirt1 protein and acetylation reaction of the target proteins thereof, NF-κB p65 and p53, were identified on the skin tissue obtained on day 18 after hair removal.
Specifically, 10 mg of the skin tissue obtained from the animal model prepared by the method in Example 2 was homogenized by addition of a lysis solution (RIPA lysis buffer). Then, centrifugation was performed at 14,000 rpm for 10 minutes. The protein concentration in the supernatant was quantified with a bovine serum albumin (BSA) standard solution. The skin tissue protein was used in an amount of 40 μg per test solution. First, the homogenized skin tissue was mixed with a sample solution (Bio-Rad, 161-0747) and inactivated at a temperature of 95° C. for 5 minutes. Thereafter, the protein was separated by a sodium dodecyl sulfate-polyacrylamide gel electrophoresis (SDS-PAGE) method, and then transferred to a nitrocellulose membrane. Treatment with anti-Sirt1 antibody (Abcam), anti-acetyl NF-κB p65 antibody and anti-acetyl p53 antibody (Cell Signaling Technologies), and anti-β-actin antibody (Santa Cruz Biotechnology) as primary antibodies were performed, and reaction was allowed to proceed. […]

NQO1 knockout mice [2] = assay: Visual observation of skin in NQO1 knockout mice treated with 6×TAC; assay type: in vivo
Source text: In order to identify whether a hair loss inhibitory effect of dunnione in an animal model having combined chemotherapy-induced alopecia is dependent on the enzyme NQO1, the same experiments as described in Examples 1 and 2 were repeatedly performed using NQO1 knockout mice in place of the C57BL/6 mice.

[3] = test system: C57BL/6 mice having alopecia caused by cyclophosphamide; assay: Visual observation of skin in animal model having alopecia caused by cyclophosphamide; assay type: in vivo
Source text: In 9-week-old C57BL/6 mice, the hair on the dorsal skin area was first removed with an animal hair clipper, and then a depilatory ([…] cream, manufactured by Ildong Pharmaceutical Co., Ltd.) was applied to the dorsal skin to completely remove the hair.

[4] = biological target: NAD(P)H: quinone oxidoreductase 1 (NQO1) (Homo sapiens, UniProt P15559); conditions: reported to date (Pandit et al. 2015; Shen et al. 2017); cited from earlier work
Sirt1 = Sirt1 activity in skin tissue (fluorescent Sirt1 detection kit), cyclophosphamide alopecia model; assay type: in vivo, mice; conditions: cyclophosphamide plus dunnione combination-treated group; day 18
Procedure: In addition, the skin tissue obtained from the animal model prepared by the method in Example 2 was homogenized. The homogenized skin tissue was tested with the fluorescent Sirt1 detection kit (BML-AK555-0001) of Enzo Life Sciences International, Inc. according to the instruction manual, and then Sirt1 activity was analyzed. 40 μg of the homogenized skin tissue was mixed with a reaction solution (Fluor de Lys-Sirt1, NAD+, buffer solution (25 mM Tris-HCl (pH8.0), 137 mM NaCl, 2.7 mM […], 1 mM MgCl2, and 1 mg/mL BSA)), and reaction was allowed to proceed at a temperature of 37° C. for 1 hour. Then, additional reaction was allowed to proceed for 5 minutes under a condition in which a developer is added. In order to check the final Sirt1 activity, readings were measured for the reaction solution using the CytoFluor series 4000 fluorometer (PerSeptive Biosystems, Inc., USA) with the excitation wavelength set to 360 nm and the emission to 460 nm.

NAD(P)H: quinone oxidoreductase 1 (NQO1), sequence (P15559 whole entry, species assumed): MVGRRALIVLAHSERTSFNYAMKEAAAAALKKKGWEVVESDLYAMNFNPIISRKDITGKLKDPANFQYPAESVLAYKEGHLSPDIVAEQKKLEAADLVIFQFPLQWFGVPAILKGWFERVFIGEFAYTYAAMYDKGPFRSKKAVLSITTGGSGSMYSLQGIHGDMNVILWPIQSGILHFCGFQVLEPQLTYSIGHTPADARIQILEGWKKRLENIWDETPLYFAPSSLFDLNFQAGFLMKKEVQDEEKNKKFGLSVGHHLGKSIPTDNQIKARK

CC1OC2=C(C(=O)C(=O)c3ccccc32)C1(C)C (stereo not drawn) [dunnione, 2,3-dihydro-2,3,3-trimethyl-naphtho[1,2-b]furan-4,5-dione]
development of hair follicles and inner root sheaths (histology) (NQO1 knockout mice [1]; CYP+Dun combination-treated group): the hair follicles have poorly developed or the inner root sheaths have insufficiently developed; also recorded: falling-off of hair follicles and inner root sheaths in the skin tissue progresses | development of hair follicles and inner root sheaths (histology) (NQO1 knockout mice [1]; dunnione alone): the hair follicles and inner root sheaths have well developed overall | acetylation of NF-κB p65 in skin tissue (NF-κB p65): suppresses | hair growth, visual observation of skin (NQO1 knockout mice [2]; 6×TAC+Dunnione combination-treated group, until day 18): hair hardly grows until day 18 after hair removal; also recorded: progression of hair loss to a level similar to the TAC alone-treated group | start of hair growth, visual observation of skin (NQO1 knockout mice [2]; dunnione alone (20 mg/kg)): hair began to grow starting from day 12 after hair removal | hair growth, visual observation of skin (NQO1 knockout mice [2]; dunnione alone (20 mg/kg), day 18): hair grew overall on day 18 so that the skin is full of hair and looks black | hair growth, visual observation of skin ([3]; CYP+Dunnione combination-treated group, day 18 after hair removal): hair grew overall so that the skin is full of hair and looks black | hair growth, visual observation of skin ([3]; CYP+Dunnione: cyclophosphamide 150 mg/kg i.p. day 9, dunnione oral daily from 3 days prior, day 14 after hair removal): began to grow more hair than the cyclophosphamide alone-treated group | hair loss ([3]; cyclophosphamide plus dunnione combination-treated group compared with cyclophosphamide alone-treated group): inhibited hair loss | hair growth, visual observation of skin ([3]; dunnione alone (20 mg/kg), day 18 after hair removal): hair grew overall so that the skin is full of hair and looks black | activity of the enzyme NQO1 [4]: increases | Sirt1 activity in skin tissue (Sirt1): maintained at a level similar to the normal group

Reference: patent US11278514B2, “Composition compromising dunnione as effective ingredient for prevention or alleviation of hair loss” (NADIANBIO LTD., priority 2018, dated 2022)
